Source: patent publication US20100137324A1, “RHO-KINASE INHIBITORS” (priority 2001, published 2010)

**Q.** Which melting point does the source give for `O=C(Nc1cnc2ccccc2c1)c1nc(Nc2ccc3[nH]ncc3c2)c2ccccc2n1` [Example 136, 4-(1H-indazol-5-ylamino)-N-(3-quinolinyl)-2-quinazolinecarboxamide] here?
**A.** The melting point was 249 to 252 °C.

**Q.** With `COc1ccc(NC(=O)c2nc(Nc3ccc4[nH]ncc4c3)c3ccccc3n2)cc1` [Example 132, 4-(1H-indazol-5-ylamino)-N-(4-methoxyphenyl)-2-quinazolinecarboxamide] as the molecule, how does the melting point read?
**A.** The melting point was 210 to 213 °C.

**Q.** For `Cc1nc(Nc2ccc3[nH]ncc3c2)c2ccccc2n1` [Example 139, N-(1H-indazol-5-yl)-N-(2-methyl-4-quinazolinyl)amine], which melting point is on record?
**A.** Its melting point is 282 to 288 °C.

**Q.** For `O=C(Nc1ccccn1)c1nc(Nc2ccc3[nH]ncc3c2)c2ccccc2n1` [Example 135, 4-(1H-indazol-5-ylamino)-N-(2-pyridinyl)-2-quinazolinecarboxamide], which melting point is on record?
**A.** The melting point was 297 to 300 °C.

**Q.** For `O=C(Nc1ccncc1)c1nc(Nc2ccc3[nH]ncc3c2)c2ccccc2n1` [Example 131, 4-(1H-indazol-5-ylamino)-N-(4-pyridinyl)-2-quinazolinecarboxamide], which melting point is on record?
**A.** The melting point was 295 to 298 °C.

**Q.** Which melting point does the source give for `O=C(NC1CCCC1)c1nc(Nc2ccc3[nH]ncc3c2)c2ccccc2n1` [Example 134, N-cyclopentyl-4-(1H-indazol-5-ylamino)-2-quinazolinecarboxamide] here?
**A.** The melting point was 237 to 239 °C.

**Q.** Which melting point does the source give for `O=C(NC1CCCCC1)c1nc(Nc2ccc3[nH]ncc3c2)c2ccccc2n1` [Example 133, N-cyclohexyl-4-(1H-indazol-5-ylamino)-2-quinazolinecarboxamide] here?
**A.** The melting point was 215 to 217 °C.

**Q.** For `CNC(=O)c1nc(Nc2ccc3[nH]ncc3c2)c2ccccc2n1` [Example 137, 4-(1H-indazol-5-ylamino)-N-methyl-2-quinazolinecarboxamide], which melting point is on record?
**A.** The melting point was 283 to 286 °C.
